Results as given in ChEMBL document CHEMBL1132039, “Isotope edited NMR studies of glycosidases: design and synthesis of a novel glycosidase inhibitor” (Bioorg Med Chem Lett, 1999).

Columns and labels:
[1] = Inhibitory potency against glucosidase was determined.; parameters: species or system Saccharomyces cerevisiae
[2] = molecular target: Lysosomal alpha-glucosidase (Homo sapiens, UniProt P10253); experiment: Inhibitory potency for alpha-glucosidase was determined at concentration up to 3.0 mM; No inhibition; parameters: species or system Saccharomyces cerevisiae

Ki [1] [µM]	Ki [2]	Compound
23		NCC(=O)N1C[C@H](O)[C@@H](O)[C@H](O)[C@H]1CO
	Not Active	OC[C@@H]1[C@@H](O)[C@H](O)[C@@H](O)CN1Cc1ccccc1
